# Data as given in ChEMBL document CHEMBL1201862, “PubChem BioAssay data set” (2004).
# Activity calls are given as the source filed them.
# Legend:
# [1] = molecular target: Polyadenylate-binding protein 1 (Homo sapiens, UniProt P11940); experiment: PABP inhibition in translation initiation, SAR follow-up (AID 435018); assay type: functional
# [2] = molecular target: Eukaryotic translation initiation factor 4H (Homo sapiens, UniProt Q15056); experiment: inhibitors of translation initiation factor eIF4H – SAR follow-up (AID 435011); assay type: functional
# [3] = molecular target: T1, Protein phosphatase methylesterase 1 (Homo sapiens, UniProt Q9Y570); experiment: Late stage results from the probe development effort to identify inhibitors of the protein methylesterase PME-1: Gel-based Activity-Based Protein Profiling (ABPP) IC50: Purified enzyme.; assay type: functional
# T1 sequence (Q9Y570 whole entry): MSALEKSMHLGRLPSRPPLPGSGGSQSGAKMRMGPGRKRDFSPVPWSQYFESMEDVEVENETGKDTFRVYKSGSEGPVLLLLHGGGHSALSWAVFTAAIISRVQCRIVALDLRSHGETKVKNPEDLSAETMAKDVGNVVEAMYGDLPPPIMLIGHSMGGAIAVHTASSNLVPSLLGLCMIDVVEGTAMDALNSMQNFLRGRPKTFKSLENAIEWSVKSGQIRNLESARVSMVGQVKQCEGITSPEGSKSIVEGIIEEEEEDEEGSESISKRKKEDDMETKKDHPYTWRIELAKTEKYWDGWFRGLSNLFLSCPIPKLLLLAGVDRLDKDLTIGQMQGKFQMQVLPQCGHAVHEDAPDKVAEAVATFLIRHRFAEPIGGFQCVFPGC
# [4] = molecular target: T1, Protein phosphatase methylesterase 1; experiment: endogenous PME-1 and serine hydrolase inhibition – cell lysate, mouse brain cytosol, FP-rhodamine, gel ABPP, selectivity assay for PME-1 inhibitor project, dose response, panel member PME-1 Assay Panel member description: Inhibition of endogenously expressed PME-1 (AID 2366)
# [5] = molecular target: Voltage-dependent T-type calcium channel subunit alpha-1H (Homo sapiens, UniProt O95180); assay type: functional;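 further: channel activity triggered by adding a high calcium stimulation buffer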
# Chain of Voltage-dependent T-type calcium channel subunit alpha-1H (O95180 whole entry): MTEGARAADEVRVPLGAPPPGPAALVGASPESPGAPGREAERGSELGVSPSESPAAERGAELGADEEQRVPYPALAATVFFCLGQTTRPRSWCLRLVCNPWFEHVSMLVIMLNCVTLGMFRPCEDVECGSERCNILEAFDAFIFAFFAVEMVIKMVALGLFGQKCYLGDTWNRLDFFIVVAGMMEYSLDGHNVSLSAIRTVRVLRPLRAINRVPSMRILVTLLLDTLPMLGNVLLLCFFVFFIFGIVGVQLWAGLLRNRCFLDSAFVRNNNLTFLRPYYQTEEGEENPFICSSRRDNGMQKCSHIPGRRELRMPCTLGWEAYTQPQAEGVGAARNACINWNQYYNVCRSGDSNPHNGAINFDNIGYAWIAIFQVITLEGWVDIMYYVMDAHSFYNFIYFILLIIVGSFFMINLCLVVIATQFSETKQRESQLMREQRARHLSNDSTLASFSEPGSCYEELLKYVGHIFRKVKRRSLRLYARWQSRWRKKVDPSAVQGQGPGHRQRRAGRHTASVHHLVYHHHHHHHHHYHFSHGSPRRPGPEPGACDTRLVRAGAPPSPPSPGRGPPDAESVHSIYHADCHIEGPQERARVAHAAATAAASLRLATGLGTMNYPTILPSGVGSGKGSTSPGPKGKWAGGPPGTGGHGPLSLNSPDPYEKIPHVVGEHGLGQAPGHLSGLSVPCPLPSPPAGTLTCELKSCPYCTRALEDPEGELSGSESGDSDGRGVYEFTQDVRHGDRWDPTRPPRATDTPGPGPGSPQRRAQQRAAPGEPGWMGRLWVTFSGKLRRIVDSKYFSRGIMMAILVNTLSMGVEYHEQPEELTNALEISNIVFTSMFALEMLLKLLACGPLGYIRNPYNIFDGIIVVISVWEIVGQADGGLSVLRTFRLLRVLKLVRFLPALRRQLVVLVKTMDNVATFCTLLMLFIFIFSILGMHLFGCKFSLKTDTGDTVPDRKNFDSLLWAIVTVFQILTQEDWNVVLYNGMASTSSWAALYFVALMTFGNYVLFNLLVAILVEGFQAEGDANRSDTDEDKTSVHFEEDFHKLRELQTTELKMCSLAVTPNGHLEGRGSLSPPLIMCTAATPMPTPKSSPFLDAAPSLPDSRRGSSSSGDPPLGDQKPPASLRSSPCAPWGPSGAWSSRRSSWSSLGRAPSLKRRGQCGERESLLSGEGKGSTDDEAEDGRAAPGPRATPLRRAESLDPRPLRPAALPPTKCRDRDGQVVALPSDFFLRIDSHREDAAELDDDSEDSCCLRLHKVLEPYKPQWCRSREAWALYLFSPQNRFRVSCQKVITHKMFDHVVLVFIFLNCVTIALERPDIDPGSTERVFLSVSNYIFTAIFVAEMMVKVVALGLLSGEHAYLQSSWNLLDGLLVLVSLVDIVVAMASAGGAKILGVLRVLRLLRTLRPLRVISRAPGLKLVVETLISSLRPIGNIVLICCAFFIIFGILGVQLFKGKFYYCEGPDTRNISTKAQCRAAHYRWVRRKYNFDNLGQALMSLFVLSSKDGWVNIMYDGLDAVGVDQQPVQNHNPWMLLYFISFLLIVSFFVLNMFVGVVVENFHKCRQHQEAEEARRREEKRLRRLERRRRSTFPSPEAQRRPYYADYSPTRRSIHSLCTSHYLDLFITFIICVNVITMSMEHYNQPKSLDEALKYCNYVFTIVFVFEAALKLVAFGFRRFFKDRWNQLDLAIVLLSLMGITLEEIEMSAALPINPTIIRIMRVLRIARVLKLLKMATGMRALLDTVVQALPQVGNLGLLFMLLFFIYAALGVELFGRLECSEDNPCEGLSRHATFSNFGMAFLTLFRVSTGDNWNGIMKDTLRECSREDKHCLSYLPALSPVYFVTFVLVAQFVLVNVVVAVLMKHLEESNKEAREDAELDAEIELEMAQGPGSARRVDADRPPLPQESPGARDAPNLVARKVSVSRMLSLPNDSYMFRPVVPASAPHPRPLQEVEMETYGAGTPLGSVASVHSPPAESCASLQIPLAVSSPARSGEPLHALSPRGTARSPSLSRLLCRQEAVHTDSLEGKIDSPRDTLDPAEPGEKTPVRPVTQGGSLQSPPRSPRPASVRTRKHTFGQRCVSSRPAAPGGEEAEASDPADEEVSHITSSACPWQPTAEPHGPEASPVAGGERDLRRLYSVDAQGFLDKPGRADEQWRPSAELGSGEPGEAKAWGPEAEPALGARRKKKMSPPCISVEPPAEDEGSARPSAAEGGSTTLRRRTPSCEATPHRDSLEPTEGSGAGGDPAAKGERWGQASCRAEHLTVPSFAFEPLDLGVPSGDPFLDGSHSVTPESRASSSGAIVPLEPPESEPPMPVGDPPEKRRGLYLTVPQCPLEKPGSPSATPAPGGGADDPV
# [6] = molecular target: G-protein coupled receptor 55 (Homo sapiens, UniProt Q9Y2T6); experiment: inhibition of LPI-stimulated GPR55 beta-arrestin translocation – imaging, U2OS, beta-arrestin-GFP, LPI agonist, primary screen (AID 2013); assay type: functional;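 further: antagonist potency measured as reduced agonist-driven arrestin aggregation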
# Chain of G-protein coupled receptor 55 (Q9Y2T6 whole entry, the tested form may be a part): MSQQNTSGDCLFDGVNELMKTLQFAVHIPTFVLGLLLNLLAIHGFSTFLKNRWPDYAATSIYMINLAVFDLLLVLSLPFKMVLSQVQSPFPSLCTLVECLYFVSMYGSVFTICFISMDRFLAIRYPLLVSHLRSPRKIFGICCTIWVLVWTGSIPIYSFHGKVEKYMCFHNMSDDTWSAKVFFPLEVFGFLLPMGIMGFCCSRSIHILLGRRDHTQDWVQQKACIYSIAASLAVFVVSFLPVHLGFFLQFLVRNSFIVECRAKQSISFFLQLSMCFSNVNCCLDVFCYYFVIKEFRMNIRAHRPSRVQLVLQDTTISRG
# [7] = molecular target: NACHT, LRR and PYD domains-containing protein 1 (Homo sapiens, UniProt Q9C000); experiment: NALP1 inhibitors in yeast, dose response, luminescent (AID 488860); assay type: functional
# Chain of NACHT, LRR and PYD domains-containing protein 1 (Q9C000 1-1212 limits assumed): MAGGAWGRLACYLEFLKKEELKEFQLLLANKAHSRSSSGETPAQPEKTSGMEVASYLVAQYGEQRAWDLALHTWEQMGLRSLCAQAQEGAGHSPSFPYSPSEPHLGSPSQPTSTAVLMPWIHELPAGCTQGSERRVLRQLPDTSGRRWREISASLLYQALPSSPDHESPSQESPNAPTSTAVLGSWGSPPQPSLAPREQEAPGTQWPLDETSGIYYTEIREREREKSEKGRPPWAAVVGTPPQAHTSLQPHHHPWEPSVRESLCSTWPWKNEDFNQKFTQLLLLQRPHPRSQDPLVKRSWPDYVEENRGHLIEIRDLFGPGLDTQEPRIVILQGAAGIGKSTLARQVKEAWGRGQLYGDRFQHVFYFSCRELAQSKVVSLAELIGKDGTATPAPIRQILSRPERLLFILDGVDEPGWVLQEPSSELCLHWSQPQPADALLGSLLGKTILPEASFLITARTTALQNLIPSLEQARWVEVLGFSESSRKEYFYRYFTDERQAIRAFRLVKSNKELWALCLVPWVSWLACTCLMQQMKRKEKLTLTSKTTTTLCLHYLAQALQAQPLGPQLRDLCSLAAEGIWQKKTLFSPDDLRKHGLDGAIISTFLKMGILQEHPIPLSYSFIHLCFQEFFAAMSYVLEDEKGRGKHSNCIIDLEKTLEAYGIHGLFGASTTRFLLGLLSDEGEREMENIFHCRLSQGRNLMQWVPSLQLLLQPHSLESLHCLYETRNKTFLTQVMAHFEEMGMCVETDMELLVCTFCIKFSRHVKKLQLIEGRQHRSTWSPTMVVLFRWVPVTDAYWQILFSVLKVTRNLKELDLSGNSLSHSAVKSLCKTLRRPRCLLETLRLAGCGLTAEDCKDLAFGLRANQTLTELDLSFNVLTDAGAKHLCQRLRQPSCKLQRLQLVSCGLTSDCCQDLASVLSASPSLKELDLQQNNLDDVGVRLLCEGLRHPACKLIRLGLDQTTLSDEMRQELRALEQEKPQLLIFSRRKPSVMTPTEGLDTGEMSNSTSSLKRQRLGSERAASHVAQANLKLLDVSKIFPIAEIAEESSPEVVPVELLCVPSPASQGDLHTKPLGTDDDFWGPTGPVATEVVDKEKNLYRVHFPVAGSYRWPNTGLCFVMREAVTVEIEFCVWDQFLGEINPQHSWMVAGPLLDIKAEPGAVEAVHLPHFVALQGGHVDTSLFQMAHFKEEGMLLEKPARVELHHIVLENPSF
# Chain of NACHT, LRR and PYD domains-containing protein 1 (Q9C000 1213-1473 limits assumed): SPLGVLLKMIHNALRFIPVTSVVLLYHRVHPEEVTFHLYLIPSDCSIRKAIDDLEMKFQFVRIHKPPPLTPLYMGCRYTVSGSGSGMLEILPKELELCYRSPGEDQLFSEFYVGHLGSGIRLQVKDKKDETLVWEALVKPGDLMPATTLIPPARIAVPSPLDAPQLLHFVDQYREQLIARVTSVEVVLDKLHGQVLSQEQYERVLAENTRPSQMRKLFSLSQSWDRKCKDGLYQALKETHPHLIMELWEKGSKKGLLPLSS
# Saccharomyces cerevisiae = experiment: S. cerevisiae Caspase-1/ASC signal blockers IC50, NALP1 inhibitor project selectivity test (AID 488863); assay type: functional, organism-based
# [8] = molecular target: T2, Short transient receptor potential channel 4 (Mus musculus, UniProt Q9QUQ5); experiment: potentiation of DAMGO-evoked TRPC4 calcium signal – cell-based, HEK293 TRPC4/mu-opioid, Fluo-4 calcium, EC20 DAMGO, dose response (AID 434941); assay type: functional
# T2 sequence (Q9QUQ5 whole entry): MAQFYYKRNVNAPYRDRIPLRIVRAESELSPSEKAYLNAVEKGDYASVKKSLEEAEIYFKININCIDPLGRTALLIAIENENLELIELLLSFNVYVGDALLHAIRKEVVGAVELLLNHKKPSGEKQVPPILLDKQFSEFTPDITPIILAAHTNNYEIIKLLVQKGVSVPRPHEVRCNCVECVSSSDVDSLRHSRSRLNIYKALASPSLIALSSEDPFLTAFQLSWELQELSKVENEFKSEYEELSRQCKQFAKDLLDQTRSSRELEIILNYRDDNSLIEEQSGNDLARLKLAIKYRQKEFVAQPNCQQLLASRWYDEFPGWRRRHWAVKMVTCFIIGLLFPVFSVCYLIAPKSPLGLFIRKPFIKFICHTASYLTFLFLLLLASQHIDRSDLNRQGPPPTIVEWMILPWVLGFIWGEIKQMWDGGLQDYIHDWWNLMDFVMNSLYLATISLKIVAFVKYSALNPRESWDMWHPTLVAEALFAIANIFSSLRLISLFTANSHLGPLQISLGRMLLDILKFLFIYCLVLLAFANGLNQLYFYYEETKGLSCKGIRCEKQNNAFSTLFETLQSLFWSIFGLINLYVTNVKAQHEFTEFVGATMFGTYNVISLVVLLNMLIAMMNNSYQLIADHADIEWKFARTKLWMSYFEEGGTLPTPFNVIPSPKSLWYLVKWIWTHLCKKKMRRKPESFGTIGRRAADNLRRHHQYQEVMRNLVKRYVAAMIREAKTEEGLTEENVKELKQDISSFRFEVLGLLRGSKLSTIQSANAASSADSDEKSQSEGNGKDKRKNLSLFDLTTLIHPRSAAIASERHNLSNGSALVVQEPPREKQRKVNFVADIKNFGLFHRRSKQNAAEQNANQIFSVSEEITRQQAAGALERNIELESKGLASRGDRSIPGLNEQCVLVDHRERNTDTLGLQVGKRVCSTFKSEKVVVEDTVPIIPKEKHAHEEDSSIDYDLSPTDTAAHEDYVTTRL
# Streptokinase A = molecular target: T3, Streptokinase A (Streptococcus pyogenes serotype M1, UniProt P10520); experiment: viability-normalized secreted streptokinase activity reduction – plasminogen activation absorbance, OD405, dose response (AID 1914); assay type: functional, Streptococcus pyogenes M1 GAS;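 further: secreted streptokinase activity via plasminogen activation per viability signal from cell pellet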
# T3 sequence (P10520 whole entry): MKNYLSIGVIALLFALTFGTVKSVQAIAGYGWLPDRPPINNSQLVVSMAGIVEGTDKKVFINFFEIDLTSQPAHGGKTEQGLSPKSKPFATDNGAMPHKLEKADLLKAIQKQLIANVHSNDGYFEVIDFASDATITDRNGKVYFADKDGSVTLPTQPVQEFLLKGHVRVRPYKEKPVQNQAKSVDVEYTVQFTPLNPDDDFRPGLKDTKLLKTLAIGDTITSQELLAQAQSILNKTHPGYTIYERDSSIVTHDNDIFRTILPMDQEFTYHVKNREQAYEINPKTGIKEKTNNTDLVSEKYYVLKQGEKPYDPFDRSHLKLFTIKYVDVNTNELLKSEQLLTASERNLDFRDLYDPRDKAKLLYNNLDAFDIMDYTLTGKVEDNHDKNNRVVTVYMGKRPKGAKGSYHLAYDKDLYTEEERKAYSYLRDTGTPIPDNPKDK
# CAAX prenyl protease 2 = molecular target: T4, CAAX prenyl protease 2 (Saccharomyces cerevisiae S288c, UniProt Q03530); assay type: biochemical
# T4 sequence (Q03530 whole entry): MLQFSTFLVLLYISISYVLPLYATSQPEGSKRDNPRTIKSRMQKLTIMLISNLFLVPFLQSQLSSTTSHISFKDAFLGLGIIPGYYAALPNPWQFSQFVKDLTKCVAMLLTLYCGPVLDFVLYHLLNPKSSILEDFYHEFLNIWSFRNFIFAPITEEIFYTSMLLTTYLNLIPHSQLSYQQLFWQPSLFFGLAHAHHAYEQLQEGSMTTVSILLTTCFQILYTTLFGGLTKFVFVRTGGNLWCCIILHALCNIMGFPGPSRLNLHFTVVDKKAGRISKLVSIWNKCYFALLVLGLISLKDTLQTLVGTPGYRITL
# [9] = toxicity toward HepG2 liver cells – cell-based, plate reader, cherry-pick, antagonist series, cytotoxicity control, dose response (AID 743416); assay type: functional
# [10] = A549 cell cytotoxicity, dose response, cytotoxicity control, plate reader, cherry-pick, antagonist series (AID 743412); assay type: functional, cell-based
# Streptococcus = experiment: GAS UMAA2166 growth inhibition – luminescence, BacTiterGlo, counter-screen for streptokinase expression inhibitor project, dose response (AID 1915); assay type: functional, organism-based;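 further: potency for reduction of bacterial viability or growth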
# [11] = system: Streptococcus sp. 'group A'; experiment: Streptococcus pyogenes SK(-)GAS viability under kanamycin – luminescence, BacTiterGlo, confirmation, counter-screen for streptokinase expression inhibitor project, dose response (AID 1900); assay type: functional, organism-based
# [12] = blockers of bursicon-stimulated LGR2 cAMP reporter – cell-based, HEK293, CRE-luciferase reporter, cherry pick, set 2, dose response (AID 743343); assay type: functional;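 further: transfected cells were stimulated with diluted bursicon conditioned medium after compound addition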
# [13] = blockade of melanocortin 4 receptor signaling – cell-based, plate reader, cherry pick, counter-screen for LGR2 antagonist project, dose response (AID 743444); assay type: functional;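 further: transfected HEK 293 cells stimulated with alpha-MSH peptide; potency of inhibitors of the alpha-MSH evoked signal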
# [14] = viability loss in HEK293 cells – cell-based, plate reader, cherry-picked samples, cytotoxicity control, dose response (AID 743446); assay type: functional
# Trypsin = Trypsin (Sus scrofa, UniProt P00761); experiment: trypsin protease activity blockade – biochemical, quenched peptide fluorescence, cherry-pick, selectivity assay for Rce1 protease inhibitor project, dose response (AID 488789)
# Chain of Trypsin (P00761 whole entry): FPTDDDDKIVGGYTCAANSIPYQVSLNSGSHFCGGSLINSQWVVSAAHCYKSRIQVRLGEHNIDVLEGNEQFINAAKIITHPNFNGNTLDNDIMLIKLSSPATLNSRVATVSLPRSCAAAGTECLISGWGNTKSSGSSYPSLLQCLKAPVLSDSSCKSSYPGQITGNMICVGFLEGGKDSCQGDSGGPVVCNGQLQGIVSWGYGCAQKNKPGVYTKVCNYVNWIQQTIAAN
structure (smiles),measurement,setting,value
COc1cccc(N=C2SC(C(=O)Nc3ccc(F)cc3)CC(=O)N2C)c1 (centres undefined),IC50,[1],> 100 µM (inactive)
same,IC50,[2],> 100 µM (inactive)
CS(=O)(=O)/C(=C/c1cccn1S(=O)(=O)c1ccccc1)CN,IC50,[3],> 20 µM (not active)
same,IC50,[4],> 20 µM (inactive)
O=C(CSc1nc2ccccc2o1)Nc1ccccc1N1CCCCCC1,EC50,[5],8.41 µM (active)
same,IC50,[6],2.06 µM (active)
CCCOc1ccccc1NC(=O)/C=C/C(N)=O,IC50,[7],8.5 µM (active)
same,IC50,Saccharomyces cerevisiae,5.33 µM (active)
Cc1ccc(Cn2c(=N)c(C(=O)NC3CCCC3)cc3c(=O)n4ccccc4nc32)cc1,EC50,[8],2.11 µM (active)
CCC(C)Sc1cc(-c2nc3ccccn3c2NC2CCCCC2)ccc1OC (centres undefined),EC50,Streptokinase A,15 µM (active)
same,AC50,CAAX prenyl protease 2,7.58 µM (active)
same,AC50,[9],18.2 µM (active)
same,AC50,[10],15.7 µM (active)
same,EC50,Streptococcus,7.68 µM (active)
same,EC50,[11],2.28 µM (active)
same,AC50,[12],2.82 µM (active)
same,AC50,[13],3.11 µM (active)
same,AC50,[14],21.1 µM (active)
same,AC50,Trypsin,2.69 µM (active)
